Laboratory results as given in patent publication US10307383B2, “Cosmetic composition for preventing or ameliorating hypersensitive skin comprising cedrol or derivatives thereof, or pharmaceutically acceptable salts thereof” (University of Seoul Industry Cooperation Foundation, priority 2017, dated 2019).

Legend:
Assay type in all cases: in vivo, Balb/c mouse
[1] = test system: psoriasis induced mice (imiquimod); assay: Skin hemorrhage spot reduction effect in the psoriasis induced mice; settings: for number of mice showing hemorrhage spots: IMQ applied, 8 mice/group
Procedure: (§1) To investigate the delayed effect of cedrol, cedryl acetate, and alpha-cedrene on the development of psoriasis, total 5 groups of mice were prepared (8 mice/group). First, the hair of the entire back of the 8-week-old male Balb/c mouse whose immune system was weakened was removed by using a hair clipper (Kimlaube Hair pen 325,327, Rikei, Korea). In the middle of the shaved back of the mouse, 2 mg of imiquimod (3M Health Care Limited, England) was applied in the area of 2 cm×1.5 cm and also 1,125 mg of imiquimod was applied on the right ear of the mouse every day once a day to induce psoriasis.
(§2) The mice prepared above were divided into the distilled water treated group (IMQ), the cedrol treated group (C), the cedryl acetate treated group (CA), and the alpha-cedrene treated group (CE). At this time, the mice were orally treated with distilled water at the concentration of 200 μl/mouse and cedrol or its derivatives at the concentration of 200 μl/mouse (100 mg/kg). The day when distilled water or the compound administration started was recorded as day 0 and the administration was performed once a day for a week, during which photo-recording was performed every day (FIGS. 2A˜2D). In the meantime, instead of applying imiquimod, 40 mg of vaseline was applied on the back of the control group (CONT) and 22.5 mg of vaseline was applied on the right ear of the control group. And the control group was orally administered with distilled water (200 μl/mouse).
The psoriasis induced mice orally administered with cedrol, cedryl acetate, and alpha-cedrene of Example <2-1> were observed by the naked eye, and the number of mice showing hemorrhage spots was counted. Hemorrhage spot is a symptom of psoriasis, and when IMQ is applied, the number of skin hemorrhage spots increases as time goes by.

[2] = test system: IL-17A expression in the spleen; assay: Inhibition of IL-17A expression in the spleen of the psoriasis induced mice (real-time PCR); settings: 100 mg/kg oral, IMQ applied; for IL-17A expression value in the spleen (non-treated control group regarded as value 1): real-time PCR, IMQ alone 54.9±5.5
Procedure: as §1, §2
The inhibition of IL-17A expression in the spleen of the psoriasis Induced mice according to the oral administration of cedrol, cedryl acetate, and alpha-cedrene was investigated by real-time PCR (polymerase chain reaction).
Particularly, the spleen was extracted from the psoriasis Induced mice orally administered with cedrol, cedryl acetate, and alpha-cedrene of Example <2-1>. Total RNA was extracted from the spleen by the conventional method. To synthesize cDNA, 2 μg of RNA was loaded in 9 μl of DEPC (RNase free water), indicating the dilution of the concentration. 1 μl of oligo dT was added thereto, followed by reaction at 70° C. for 10 minutes. The sample was treated on ice for 5 minutes, to which 2 μl of 10× reaction buffer, 2 μl of dNTP (10 mM each), 1 μl of M-MLV reverse transcriptase, and 5 μl of DNase free water were added to make the total volume of the reaction mixture 20 μl. The mixture was reacted at 42° C. for 1 hour to synthesize cDNA. The reaction mixture was heated at 72° C. for 10 minutes to remove the reverse transcriptase activity. Then, the reaction mixture was stored at −20° C. Real-time PCR was performed by using AMPIGENE qPCR 1-Step Green Kit (Enzo Life Sciences Inc, USA). […]

[3] = test system: psoriasis induced mice (imiquimod); assay: Cumulative score of PASI for ear thickness, keratosis and skin flair (development phase); settings: 100 mg/kg oral, 7 days, IMQ applied
Procedure: as §1
as §2, with “And the control group was orally administered with distilled water (200 μl/mouse).” left out

[4] = test system: psoriasis induced mice (imiquimod); assay: Skin thickness of the psoriasis induced mice (hematoxylin and eosin staining); settings: day 7, 100 mg/kg oral; for skin thickness: IMQ applied, control 1,045, IMQ alone 1,181; for skin thickness, % inhibition: versus IMQ alone
Procedure: as §1, §2
The skin of the psoriasis induced mice orally administered with cedrol, cedryl acetate, and alpha-cedrene of Example <2-1> was stained with hematoxyline and eosine in order to compare the skin thickness.
Particularly, the psoriasis induced mice of Example <2-1> were sacrificed with CO2, from which 1 cm×1 cm portions of the back surface were obtained and placed in PBS. The tissues washed with PBS were loaded in 10% formalin, followed by fixing at room temperature for a day. The fixed tissues were washed with PBS once, followed by dehydration with 25% methanol, 50% methanol, 75% methanol, and 100% methanol for 30 minutes each. Further dehydration of those tissues was additionally performed with 100% ethanol twice for 30 minutes each; with the mixed solution comprising ethanol and xylene (1:1) for 30 minutes, and with 100% xylene twice for 30 minutes each. 4 hours before washing, the modular tissue embedding center (LEICA EG 1150H, Leica, Germany) was turned on and paraplast plus (Sigma Aldrich, Korea) was melted at 60° C., followed by washing the paraffin. The tissues were loaded in a bottle, to which the melted paraffin was poured in, followed by washing in a 60° C. warm chamber twice for one hour each. The xylene-free tissues were placed in the paraffin solution, followed by reaction in the warm chamber for a day. The tissue sections were then placed on a Peel-A-Way embedding mold (Polysciences, Taiwan) and the paraffin solution was filled to half of the mold. The tissue sections were placed on top of the Peel-A-Way embedding mold, followed by fixing. An embedding ring (Thomas Scientific, USA) was placed on the mold, which was treated with the paraffin solution to solidify the mold and the ring at 4° C. for 3 hours, followed by reaction at 4° C. for a day. The embedded tissues can be semipermanently stored at 4° C. The embedded tissues were cut by using a semi-motorized rotary microtome (LEICA RM2145 Microtome, Leica, Germany), which were suspended in a 37° C. water bath to spread the paraffin wrinkles. The straightened wrinkles were collected by using a micro silane coating slide (Muto Pure Chemicals, Japan), which were dried at 37° C. for a day. When the tissues were completely dried, they were treated with xylene twice for 5 minutes each in order to eliminate the paraffin remaining in the tissues. The tissues were further washed with the mixed solution comprising ethanol and xylene (1:1), 100% ethanol, 100% methanol, 75% methanol, and 50% methanol for 2 minutes each to stain the tissues easily. […]

[5] = test system: psoriasis induced mice (imiquimod); assay: Ear thickness reduction effect in the psoriasis induced mice (PASI); settings: for mean ear thickness point (PASI): day 7, 100 mg/kg oral once a day, IMQ applied, IMQ alone 3.5
Procedure: as §1, §2
Then, the psoriasis area severity index (PASI) was calculated with the range of 1˜4 to confirm the reduction effect of the compounds on the ear thickness.

[6] = day 7, 100 mg/kg oral, IMQ alone 5

| SMILES | number of mice showing hemorrhage spots ([1]; day 5, 100 mg/kg oral) | number of mice showing hemorrhage spots [1, 6] | IL-17A expression inhibition effect in the spleen, comparison in words [2] | IL-17A expression value in the spleen (non-treated control group regarded as value 1) [2] | cumulative PASI (ear thickness, keratosis, skin flair) reduction effect, in words [3] | skin thickness [4] [μm] | skin thickness, % inhibition [4] [% inhibition] | mean ear thickness point (PASI) [5] [point] | number of mice showing hemorrhage spots ([1]; day 4, 100 mg/kg oral) | skin hemorrhage spot reduction effect, comparison in words ([1]; 100 mg/kg oral, 7 days) | ear thickness reduction effect, comparison in words ([5]; 100 mg/kg oral, 7 days) |
| --- | --- | --- | --- | --- | --- | --- | --- | --- | --- | --- | --- |
| CC1=CC[C@@]23C[C@@H]1C(C)(C)[C@@H]2CC[C@H]3C [alpha-cedrene, Alpha-cedrene] | two | one | strongest inhibition effect | 31.0±3.1 | strongest reduction effect at a similar level | 954 | 19.2 | 2.6 | – | – | – |
| C[C@@H]1CC[C@H]2C(C)(C)[C@H]3C[C@@]12CC[C@@]3(C)O [cedrol, Cedrol] | – | 3 mice | – | 1.1±0.1 | – | 954 | 19.2 | 2.6 | one | – | – |
| CC(=O)O[C@]1(C)CC[C@@]23C[C@@H]1C(C)(C)[C@@H]2CC[C@H]3C [cedryl acetate, Cedryl acetate] | one | one | – | 7.4±0.7 | strongest reduction effect at a similar level | 999 | 15.3 | 2.3 | – | strongest reduction effect | strongest reduction effect |
